Experiments:
RET/C634R-V804M = biological target: T1, RET/C634R-V804M (Homo sapiens, UniProt P07949, C634R/V804M); assay: RET auto-phosphorylation immunoblot in transfected HEK293 cells; format: cell-based; conditions: 1 nM, 2 hrs, cells expressing RET/C634R-V804M
T1 construct: expressed in transfected cells; host or cells: HEK293
From the text: FIG. 2: Photographs of blots showing inhibition of phosphorylation of gate-keeper RET point mutant and rearranged RET oncoproteins by Pz-1 or vehicle (NT: not treated). HEK293 cells were transiently transfected with vectors expressing RET/C634R-V804M mutant (V804 is the gate-keeper RET residue), or RET/PTC1 (CCDC6-RET, found in papillary thyroid carcinoma and lung adenocarcinoma), RET/PTC3 (NCOA4-RET, found in papillary thyroid carcinoma and lung adenocarcinoma), or KIF5B-RET (found in lung adenocarcinoma). After 36 hr from transfection, cells were serum-starved for 12 hr and then treated for 2 hr with indicated concentrations of Pz-1. 50 μg of total cell lysates were subjected to immunoblotting with anti-phospho-Y1062 (αp1062) and anti-phospho-Y905 (αp905) RET antibodies. The blots were normalized using anti-RET (αRET) antibody.
The inhibition of RET auto-phosphorylation by Pz-1 was measured in several different cell lines including NIH3T3 fibroblasts expressing RET/C634Y or RET/M918T, TT expressing RET/C634W (MTC), Nthy-ory-3-1 (thyroid, non-transformed with RET; negative control), HEK293/RET/PTC1 (CCDC6-RET that can be found in PTC & lung cancer), HEK293/RET-KIF5B (that can be found in lung cancer), HEK293/RET/PTC3 (NCOA4-RET, that can be found in PTC & lung cancer), and HEK293 transfected with RET/C634R-V804M (FIGS. 1-3). […]

parental Ba/F3 cells = assay: Proliferation of parental Ba/F3 cells; format: cell-based, murine; conditions: parental Ba/F3, with IL-3
Description: FIG. 6: Activity of Pz-1 on NCOA4-RET oncogene-driven IL-3-independent proliferation of murine Ba/F3 cells. […] Ba/F3 and Ba/F3 NCOA4-RET cells were incubated with vehicle (NT) or the indicated concentration of Pz-1 in complete medium and counted at different time points. Data are the mean±SD of one experiment performed in triplicate. Murine interleukin-3 (IL-3) dependent pro-B Ba/F3 cells were from ATCC. Ba/F3 cells stably expressing NCOA4-RET (RET/PTC3) protein were generated by transfecting long isoform (RET-51) of NCOA4-RET by electroporation. Parental and Ba/F3-NCOA4-RET cells were cultured in RPMI 1640 with 10% FBS; parental cells required also 10 ng/ml IL-3. IC50 doses (with Confidence Intervals) are indicated.
Nthy-ory-3-1 and TTcells were seeded in 60-mm dishes. Cells were kept in 2% (Nthy-ori-3-1) or 10% (TT) fetal calf serum. One day after plating, different concentrations of Pz-1 or vehicle were added to the medium and changed every 2-3 days. Cells were counted every 2-3 days. […] Parental and RET/PTC-expressing Ba/F3 were kept in 10% fetal calf serum in 6-multi wells and counted every day for 4 consecutive days, changing media every 2 days. […] IC50 doses were calculated through a curve fitting analysis from the last day of growth curves using the PRISM software program (Graphpad Software Inc). […]

[1] = system: parental NIH3T3 fibroblasts; assay: Growth of parental NIH3T3 fibroblasts; format: cell-based; conditions: up to 1000 nM, 3 days
PK study in rats = format: in vivo
Description: For PK studies of Pz-1 in animals, a solution formulation for oral administration was created in 500 μL of polysorbate 80, 500 μL of EtOH, and 1.0 mL of pH 2 buffer. For the toxicity studies, a suspension formulation was developed in tween 20 (20%) and xanthan gum (0.125%).
T112 (3-4 hrs) in rats was in line with T1/2 in mice (4.2 hrs).

T1 sequence (P07949 29-1072 isoform P07949-2 C634R/V804M limits assumed): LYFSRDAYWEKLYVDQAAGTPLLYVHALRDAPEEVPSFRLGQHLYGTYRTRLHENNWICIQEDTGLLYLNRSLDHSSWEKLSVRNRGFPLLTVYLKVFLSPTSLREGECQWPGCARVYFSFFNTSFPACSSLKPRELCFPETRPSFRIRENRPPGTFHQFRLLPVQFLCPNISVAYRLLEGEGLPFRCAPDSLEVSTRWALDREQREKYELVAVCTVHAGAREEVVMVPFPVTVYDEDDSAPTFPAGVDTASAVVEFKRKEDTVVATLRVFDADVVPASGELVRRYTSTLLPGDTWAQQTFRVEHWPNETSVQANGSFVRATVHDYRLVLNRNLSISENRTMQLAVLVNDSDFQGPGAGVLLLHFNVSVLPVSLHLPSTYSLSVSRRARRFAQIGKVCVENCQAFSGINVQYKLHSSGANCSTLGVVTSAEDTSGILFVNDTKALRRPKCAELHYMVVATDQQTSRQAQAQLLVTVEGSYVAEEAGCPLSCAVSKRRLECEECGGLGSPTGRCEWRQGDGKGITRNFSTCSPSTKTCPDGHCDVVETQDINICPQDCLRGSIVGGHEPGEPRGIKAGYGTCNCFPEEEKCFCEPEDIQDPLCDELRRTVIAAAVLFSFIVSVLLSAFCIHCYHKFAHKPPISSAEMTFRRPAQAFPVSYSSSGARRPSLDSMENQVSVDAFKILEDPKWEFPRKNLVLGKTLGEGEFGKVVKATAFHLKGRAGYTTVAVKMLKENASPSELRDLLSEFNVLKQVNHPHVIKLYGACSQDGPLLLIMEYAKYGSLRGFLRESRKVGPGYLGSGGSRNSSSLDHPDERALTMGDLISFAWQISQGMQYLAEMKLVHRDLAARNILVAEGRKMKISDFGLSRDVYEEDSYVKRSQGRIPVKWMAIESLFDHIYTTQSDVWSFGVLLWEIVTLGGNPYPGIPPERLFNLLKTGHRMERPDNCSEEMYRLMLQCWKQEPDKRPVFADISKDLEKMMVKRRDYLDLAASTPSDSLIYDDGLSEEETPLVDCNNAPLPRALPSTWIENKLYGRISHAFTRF

SMILES: Cn1cc(-c2ccc3c(c2)ncn3-c2ccc(CC(=O)Nc3cc(C(C)(C)C)on3)cc2)cn1 [Pz-1, N-(5-(tert-butyl)isoxazol-3-yl)-2-(4-(5-(1-methyl-1H-pyrazol-4-yl)-1H-benzo[d]imidazol-1-yl)phenyl)acetamide]
- inhibition of pRET (RET/C634R-V804M): strongly inhibited
- inhibition of proliferation (parental Ba/F3 cells): inhibition of proliferation by Pz-1 for Ba/F3-NCOA4-RET but not parental Ba/F3
- effect on growth [1]: did not significantly reduce growth
- T112 (PK study in rats): 3 to 4 h
- volume distribution (PK study in rats): 2.02 L/kg
- AUC (PK study in rats; 1 mg/kg (IV)): 1.9 µg/h/mL
- AUC (PK study in rats; 10 mg/kg (oral)): 19 µg/h/mL
- bioavaliblity (PK study in rats; oral): 97%
- half-life (PK study in rats; rat, in vivo, 10 mg/kg, oral study, read-out: elimination half-life (converted)): 252 min
- clearance (PK study in rats; rat, in vivo, oral, 10 mg/kg): 9 mL/min/kg

Source: patent US9988371B2, “Benzimidazole analogues and related methods” (The Arizona Board of Regents, on Behalf of the University …, priority 2014, dated 2018)
